The text below walks through data of US6348445B1, “Biologically active peptides with reduced toxicity in animals and a method for preparing same” (priority 1992, dated 2002).

Format in all cases: cell-based
Experiment [1] has as its system E. coli ATCC strain 25922. The experiment can be described thus: Minimal Inhibitory Concentration, microtiter broth dilution. The settings on record: ATCC strain 25922. The method in brief:
(§1)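 Broth microdilution per NCCLS M7-T2: final peptide levels 0.25 to 256 μg/ml (twofold steps), inoculum 1-5×10^5 CFUs/ml in full-strength Mueller Hinton broth. MIC read as lowest concentration leaving the well clear after 16-20 hours at 37° C.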

The test system of experiment [2] is WM 1617 human melanoma cells. The settings on record: 24 h. As to the method:
(§2) Human lung carcinoma cells, A-549 (ATCC), and human breast carcinoma cells, MDA-435 (from Sandoz), were grown in Ham's F12K medium (GIBCO-BRL) supplemented with […] fetal bovine serum. Human chronic myelogenous leukemia cells, K-562 (ATCC), were maintained in RPMI 1640 medium (GIBCO-BRL) supplemented with 10% fetal bovine serum. Human melanoma cell line, WM 1617 (from the Wistar Institute), was maintained in 2% Tumor media.
(§3) Cytotoxicity assays were performed on the cell lines described above using CytoLite (Packard Instrument Company) following the manufacture's instruction. Briefly, 2×10^4cells/well were seeded into black, 96-well ViewPlates (Packard Instrument Company) in 100 μl/well growth medium. Ser. dilutions of Magainin peptides were then added into the cells and the plates incubated for 24 hours in a humidified 5% CO2 atmosphere at 37° C. Following incubation, 25 μl/well of CytoLite activator solution was added followed by 125 μl/well of amplifier solution. Luminescence was measured on TopCount Microplate Scintillation and Luminescence counter (Packard Instrument Company) using a 1 second count time in SPC (single photon counting) mode at 25 ° C. All assays were performed in triplicate. The peptides tested in this assay were MSI-78(SEQ ID NO: 154 —NH2), MSI-1858(SEQ ID NO: 154 —NH2 Methane Sulfonate), MSI-344(SEQ ID NO: 154 —OH) and MSI-1857(SEQ ID NO: 154 —OH Methane Sulfonate). The results of these assays are shown in FIGS. 2-9 with the corresponding IC50 values in Table VIII. In all cases the activity of the methane sulfonated peptide was as good or better than the parent peptide as indicated by both the survival curves and the IC50 values.

The test system of experiment [3] is MDA-435 human breast carcinoma cells. Particulars: 24 h. As to the method: as §2, §3
Experiment [4] deals with A-549 human lung carcinoma cells. Particulars: 24 h. As to the method: as §2, §3
Experiment [5] has as its system K-562 human chronic myelogenous leukemia cells. The settings on record: 24 h. As to the method: as §2, §3
A further experiment deals with S. aureus ATCC 29213. Particulars: ATCC 29213.
In experiment [6] the test system is P. aeruginosa strain ATCC 27853. The settings on record: ATCC 27853. The method in brief: as §1

Where no end group is shown, it is not given here.

Consider GIGKFLKKAKKFGKAFVKILKK [MSI-78], for which the “MIC E. coli ATCC 25922” value in experiment [1] was 32 µg/mL. The IC50 stood at 3 µM in experiment [2], 4 µM in experiment [3], 3 µM in experiment [4] and 9 µM in experiment [5]. Also, the “MIC S. aureus ATCC 29213” value against S. aureus ATCC 29213 turned out to be 16 µg/mL. Also, the “MIC P. aeruginosa ATCC 27853” value in experiment [6] lay within 16 to 32 µg/mL.

A word on the IC50: it is the point on the concentration scale where inhibition reaches its midpoint. A high value points to lower potency.
